1 compound from patent US11033496B2, “Nanoparticles for delivery of chemopreventive agents” (OHIO STATE INNOVATION FOUNDATION, priority 2017, dated 2021) can be followed below.

The series deals with human OSCC cells (three oral SCC cell lines). The series is classed as cell-based. The conditions noted are these: for maximum uptake (fluorescence intensity): 6 h. On the procedure: Mean±S.D., n=18, *=p<0.01, ‡=p,0.001, Mann Whitney U 2-tailed test.
The internalization of free-IDA was more rapid than IDA-NP after 1-hour at 1000 nM (free-IDA: 21.08±5.33 vs. IDA-NP: 12.87±4.32). However, the maximum uptake of IDA-NP was greater than free-IDA after 6 hours at 2500 nM (IDA-NP: 43.53±8.42 vs. free-IDA: 27.61±5.66) and 5000 nM (IDA-NP: 64.44±12.71 vs. free-IDA: 31.06±7.24). [Data collected from three oral SCC cell lines, mean±SD, n=18, *P≤0.01 †P≤0.002, ‡P≤0.001; IDA-NP samples compared to free-IDA samples [Mann-Whitney U two-tailed Test].

SMILES strings stand for the structures. Read-outs that look alike come from different tables or passages of the source.

As for `CC(=O)[C@]1(O)Cc2c(O)c3c(c(O)c2[C@@H](O[C@H]2C[C@H](N)[C@H](O)[C@H](C)O2)C1)C(=O)c1ccccc1C3=O` [free-IDA, idarubicin], the “internalization / cellular uptake (fluorescence intensity)” value (1 h, 1000 nM) is listed as 21.08±5.33. Besides, the “maximum uptake (fluorescence intensity)” value (2500 nM) was found to be 27.61±5.66 and the “maximum uptake (fluorescence intensity)” value (5000 nM) is 31.06±7.24.
